# Columns and labels:
# [1] = test system: LNCaP and 22rv1 cell lines; assay: SAR statements on LNCaP and 22rv1 cell lines; assay type: cell-based; settings: LNCaP 1 μM, 22rv1 0.5 μM
# Procedure: All compounds were evaluated for their effects on LNCaP and 22rv1 cell lines at 1 and 0.5 μM concentrations, respectively. […] For this purpose different analogues of B-3 with chain length varying from 0 to 4 carbon were synthesized (Table 1). […] In view of the availability of a variety of commercially available benzyl amines over phenyl propyl amines and method to functionalize analogues with 1C chain compound 14c was selected for further modification.
# 22rv1 = assay: Effect on 22rv1 cell viability; settings: for % Cell Viability of 22rv1 at 1 μM: at 1 μM (stated in cell); for viability at 0.5 µM: 22Rv1, read-out: % Cell Viability of 22rv1 at 0.5 μM
# Procedure: (§1) The initial interest was to see the importance of length of side chain on B-3. […] Relative cell growth can be assessed using the MTT (3-(4,5-dimethylthiazol-2-yl)-2,5-diphenyltetrazolium bromide) assay, a colorimetric assay for assessing cell metabolic activity. Cells (1000 to 2000 cells/well) in 150 μL culture medium were seeded in wells of a 96-well plate one day before various concentrations of drugs were added. After continuing culture in the presence of the drugs for the indicated time (3-4 days), 20 μL of 5 mg/mL MTT solution (Sigma-Aldrich) was added into each well. After incubation at 37° C. for 30 min, the culture medium was removed and 100 μL of DMSO was added to dissolve MTT crystals. Plates were shaken for 15 min at room temperature and absorbance at OD590 was read by plate reader.
# LnCap cells = assay: Effect on LnCap cell viability; settings: for viability at 1 µM: Homo sapiens, LNCaP, read-out: % Cell Viability of LnCap cells at 1 μM, 1 μM
# Procedure: as §1
# KDM4 = settings: previous report; cited from earlier work
# [2] = test system: cancer cell lines including PC3; settings: previous report; includes PC3 cells lacking AR; cited from earlier work
# [3] = test system: KDM4B-regulated AR-V7 expression; settings: previous report; cited from earlier work
smiles,measurement,setting,value
O=C(NCCCCc1ccccc1)c1cccc(-c2cc(O)c3ncccc3c2)c1 [Compound 14a],"activity on cell lines, in words (SAR)",[1],deterioration of activity
O=C(NCCc1ccccc1)c1cccc(-c2cc(O)c3ncccc3c2)c1 [Compound 14b],% Cell Viability of 22rv1 at 0.5 μM,22rv1,"83.7% (B-3,"
same,"activity on cell lines, in words (SAR)",[1],deterioration of activity
O=C(NCc1ccccc1)c1cccc(-c2cc(O)c3ncccc3c2)c1 [Compound 14c],% Cell Viability of 22rv1 at 0.5 μM,22rv1,"79.3% (B-3,"
same,"activity on cell lines, in words (SAR)",[1],restoration of activity
O=C(Nc1ccccc1)c1cccc(-c2cc(O)c3ncccc3c2)c1 [Compound 14d],"activity on cell lines, in words (SAR)",[1],poor activity
O=C(NCc1ccc(F)cc1)c1cccc(-c2cc(O)c3ncccc3c2)c1 [Compound 15a],% Cell Viability of LnCap cells at 1 μM,LnCap cells,72.8%
O=C(NCc1cccc(O)c1)c1cccc(-c2cc(O)c3ncccc3c2)c1 [Compound 15e],% Cell Viability of LnCap cells at 1 μM,LnCap cells,87.9%
O=C(NCc1ccccc1O)c1cccc(-c2cc(O)c3ncccc3c2)c1 [Compound 15f],% Cell Viability of LnCap cells at 1 μM,LnCap cells,56.9%
COc1ccc(CNC(=O)c2cccc(-c3cc(O)c4ncccc4c3)c2)cc1 [Compound 15g],% Cell Viability of LnCap cells at 1 μM,LnCap cells,68.4%
COc1cccc(CNC(=O)c2cccc(-c3cc(O)c4ncccc4c3)c2)c1 [Compound 15h],% Cell Viability of LnCap cells at 1 μM,LnCap cells,"88.5% (B-3, ND)"
COc1cc(CNC(=O)c2cccc(-c3cc(O)c4ncccc4c3)c2)cc(OC)c1OC [Compound 15k],% Cell Viability of LnCap cells at 1 μM,LnCap cells,"98.1 (B-3, ND) %"
COc1ccc(CNC(=O)c2cccc(-c3cc(O)c4ncccc4c3)c2)cc1OC [Compound 15l],% Cell Viability of LnCap cells at 1 μM,LnCap cells,"75.7 (B-3, ND) %"
O=C(NCc1ccc(C(F)(F)F)cc1)c1cccc(-c2cc(O)c3ncccc3c2)c1 [Compound 15m],% Cell Viability of LnCap cells at 1 μM,LnCap cells,67.7%
O=C(NCc1cccc(C(F)(F)F)c1)c1cccc(-c2cc(O)c3ncccc3c2)c1 [Compound 15n],% Cell Viability of LnCap cells at 1 μM,LnCap cells,75.4%
O=C(NCc1ccccc1C(F)(F)F)c1cccc(-c2cc(O)c3ncccc3c2)c1 [Compound 15o],% Cell Viability of LnCap cells at 1 μM,LnCap cells,94.5%
O=C(NCc1cc(C(F)(F)F)cc(C(F)(F)F)c1)c1cccc(-c2cc(O)c3ncccc3c2)c1 [Compound 15p],% Cell Viability of LnCap cells at 1 μM,LnCap cells,62.5%
O=C(NCc1ccc(C(F)(F)F)cc1F)c1cccc(-c2cc(O)c3ncccc3c2)c1 [Compound 15r],% Cell Viability of LnCap cells at 1 μM,LnCap cells,101%
N#Cc1ccc(CNC(=O)c2cccc(-c3cc(O)c4ncccc4c3)c2)cc1 [Compound 15s],% Cell Viability of LnCap cells at 1 μM,LnCap cells,"52.8% (B-3, ND)"
CN(C)c1ccc(CNC(=O)c2cccc(-c3cc(O)c4ncccc4c3)c2)cc1 [Compound 15t],% Cell Viability of LnCap cells at 1 μM,LnCap cells,66.3%
same,% Cell Viability of 22rv1 at 0.5 μM,22rv1,19.6%
O=C(NCc1ccncc1)c1cccc(-c2cc(O)c3ncccc3c2)c1 [Compound 15u],% Cell Viability of LnCap cells at 1 μM,LnCap cells,70.9%
O=C(NCc1cccs1)c1cccc(-c2cc(O)c3ncccc3c2)c1 [Compound 15v],% Cell Viability of LnCap cells at 1 μM,LnCap cells,79.8%
O=C(NCC1CC1)c1cccc(-c2cc(O)c3ncccc3c2)c1 [Compound 15w],% Cell Viability of LnCap cells at 1 μM,LnCap cells,60.7%
O=C(NCC1CCCCC1)c1cccc(-c2cc(O)c3ncccc3c2)c1 [Compound 15x],% Cell Viability of LnCap cells at 1 μM,LnCap cells,"104% (B-3, ND)"
O=C(NCc1ccc(Oc2ccccc2)cc1)c1cccc(-c2cc(O)c3ncccc3c2)c1 [Compound 16a],% Cell Viability of 22rv1 at 1 μM,22rv1,29.5%
same,"activity on cell lines, in words (SAR)",[1],significant improvement of activity over B-3
O=C(NCc1ccc(Oc2ccc(Cl)cc2)cc1)c1cccc(-c2cc(O)c3ncccc3c2)c1 [Compound 16b],% Cell Viability of 22rv1 at 1 μM,22rv1,33.2%
O=C(NCc1ccc(Oc2ccccc2Cl)cc1)c1cccc(-c2cc(O)c3ncccc3c2)c1 [Compound 16c],% Cell Viability of 22rv1 at 1 μM,22rv1,38.1%
O=C(NCc1ccc(Oc2ccc(F)cc2)cc1)c1cccc(-c2cc(O)c3ncccc3c2)c1 [Compound 16d],% Cell Viability of 22rv1 at 1 μM,22rv1,35.1%
O=C(NCc1ccc(-c2ccc(C(F)(F)F)cc2)cc1)c1cccc(-c2cc(O)c3ncccc3c2)c1 [Compound 16f],% Cell Viability of LnCap cells at 1 μM,LnCap cells,44.2%
CC1Cc2ccc(-c3ccc(CNC(=O)c4cccc(-c5cc(O)c6ncccc6c5)c4)cc3)cc2O1 (centres unmarked) [Compound 16g],% Cell Viability of LnCap cells at 1 μM,LnCap cells,30.0%
O=C(NCc1cccc(-c2ccccc2)c1)c1cccc(-c2cc(O)c3ncccc3c2)c1 [Compound 16h],% Cell Viability of LnCap cells at 1 μM,LnCap cells,21.8%
same,% Cell Viability of 22rv1 at 0.5 μM,22rv1,26.9%
O=C(NCc1cccc(-c2ccc(F)cc2)c1)c1cccc(-c2cc(O)c3ncccc3c2)c1 [Compound 16i],% Cell Viability of LnCap cells at 1 μM,LnCap cells,17.3%
same,% Cell Viability of 22rv1 at 0.5 μM,22rv1,42.01%
O=C(NCc1ccccc1-c1ccc(CN2CCCC2=O)cc1)c1cccc(-c2cc(O)c3ncccc3c2)c1 [Compound 16j],% Cell Viability of LnCap cells at 1 μM,LnCap cells,10.9%
same,% Cell Viability of 22rv1 at 0.5 μM,22rv1,14.3%
same,"inhibition of 22rv1 cells, in words",22rv1; compared with B-3,inhibited 22rv1 cells much better than B-3
O=C(NCc1ccc(C(=O)c2ccccc2)cc1)c1cccc(-c2cc(O)c3ncccc3c2)c1 [Compound 16k],% Cell Viability of LnCap cells at 1 μM,LnCap cells,"26.7 (B-3, ND) %"
same,% Cell Viability of 22rv1 at 0.5 μM,22rv1,6.4%
O=C(O)c1ccc(CNC(=O)c2cccc(-c3cc(O)c4ncccc4c3)c2)cc1 [Compound 17a],viability at 1 µM,LnCap cells,97.5%
NC(=O)c1ccc(CNC(=O)c2cccc(-c3cc(O)c4ncccc4c3)c2)cc1 [Compound 17b],% Cell Viability of 22rv1 at 0.5 μM,22rv1,78.4%
same,"activity on cell lines, in words (SAR)",[1],lower activity than B-3
COC(=O)c1ccc(CNC(=O)c2cccc(-c3cc(O)c4ncccc4c3)c2)cc1 [Compound 17c],viability at 1 µM,LnCap cells,47.9%
same,viability at 0.5 µM,22rv1; Homo sapiens,12.9%
CCOC(=O)c1ccc(CNC(=O)c2cccc(-c3cc(O)c4ncccc4c3)c2)cc1 [Compound 17d],% Cell Viability of 22rv1 at 0.5 μM,22rv1,22.7%
CCCOC(=O)c1ccc(CNC(=O)c2cccc(-c3cc(O)c4ncccc4c3)c2)cc1 [Compound 17e],% Cell Viability of 22rv1 at 0.5 μM,22rv1,7.9%
same,"activity on cell lines, in words (SAR)",[1],better than compound 17c
CC(C)CNC(=O)c1ccc(CNC(=O)c2cccc(-c3cc(O)c4ncccc4c3)c2)cc1 [Compound 17f],% Cell Viability of 22rv1 at 0.5 μM,22rv1,41.0%
same,"activity on cell lines, in words (SAR)",[1],proved useful
CC(C)NC(=O)c1ccc(CNC(=O)c2cccc(-c3cc(O)c4ncccc4c3)c2)cc1 [Compound 17g],% Cell Viability of 22rv1 at 0.5 μM,22rv1,41.0%
same,"activity on cell lines, in words (SAR)",[1],proved useful
O=C(NCc1ccc(C(=O)NC2CCCC2)cc1)c1cccc(-c2cc(O)c3ncccc3c2)c1 [Compound 17i],% Cell Viability of 22rv1 at 0.5 μM,22rv1,29.8%
same,"activity on cell lines, in words (SAR)",[1],loss of activity
O=C(NCc1ccc(C(=O)NC2CCCCC2)cc1)c1cccc(-c2cc(O)c3ncccc3c2)c1 [Compound 17j],% Cell Viability of 22rv1 at 0.5 μM,22rv1,5.0%
same,"activity on cell lines, in words (SAR)",[1],significant jump in activity compared to B-3
O=C(NCc1ccc(C(=O)NC2CCCCCC2)cc1)c1cccc(-c2cc(O)c3ncccc3c2)c1 [Compound 17k],% Cell Viability of 22rv1 at 0.5 μM,22rv1,10.8%
same,"activity on cell lines, in words (SAR)",[1],loss of activity
O=C(NCc1ccc(C(=O)N[C@H]2CC[C@H](C(F)(F)F)CC2)cc1)c1cccc(-c2cc(O)c3ncccc3c2)c1 [Compound 17m],% Cell Viability of LnCap cells at 1 μM,LnCap cells,24.2%
same,"activity on cell lines, in words (SAR)",[1],much more active than compound 17n
O=C(NCc1ccc(C(=O)N[C@H]2CC[C@@H](C(F)(F)F)CC2)cc1)c1cccc(-c2cc(O)c3ncccc3c2)c1 [Compound 17n],"activity on cell lines, in words (SAR)",[1],17m (trans isomer) was much more active than compound 17n
O=C(NCc1ccc(C(=O)Nc2ccc(C(F)(F)F)cc2)cc1)c1cccc(-c2cc(O)c3ncccc3c2)c1 [Compound 17o],"activity on cell lines, in words (SAR)",[1],significantly lower activities compared to compounds 17l and 17m
"O=C(NCCCc1ccccc1)c1cccc(-c2cc(O)c3ncccc3c2)c1 [Compound B-3, reference compound]",viability at 0.5 µM,22rv1; Homo sapiens,63.6%
same,viability at 1 µM,"22rv1; Homo sapiens, 22Rv1, read-out: % Cell Viability of 22rv1 at 1 μM",42.5%
same,"KDM4 inhibition, in words",KDM4,highly selective and potent KDM4 inhibitor
same,"effectiveness against cancer cell lines, in words",[2],highly effective against a variety of cancer cell lines including PC3
same,"inhibition of KDM4B-regulated AR-V7 expression, in words",[3],able to inhibit KDM4B-regulated AR-V7 expression

# Source: patent US12378201B2, “Histone demethylase inhibitors for treating cancers” (The Board of Regents of the University of Texas System, priority 2019, dated 2025)
